{"source": "patent US8268836B2", "about": "“Compound useful as a c-Met inhibitor” (Eli Lilly and Company, priority 2010, dated 2012)", "key": {"[1]": {"test_system": "U87MG glioblastoma xenografts", "assay": "Xenograft tumor model U87MG", "format": "in vivo, mice", "protocol": "(§1) Human glioblastoma cells U87MG, human gastric cancer cells MKN45, or human pancreatic KP4 cells are cultured and implanted subcutaneously in the rear flank of female CD-1 nu/nu strain mice which have been acclimated for one week in the animal facility after receipt from the vendor. Mice are randomized into groups of 10 mice per group. Testing compound is prepared in an appropriate vehicle and is administered by oral gavage when tumors are established (7-21 days after implant, or when the mean tumor volume reaches ˜100 mm^3). Tumor response is determined by tumor volume measurement performed twice a week during the course of treatment. Fluctuations in body weight are also monitored as a general measurement of toxicity. The compound of example 1 is orally administered twice a day for 28 days.\n(§2) For statistical analysis, the individual subject tumor volumes are transformed to log volume and are analyzed with a two-way repeated measures analysis of variance by time and treatment using the MIXED procedures in SAS software (version 8.2). The correlation model for the repeated measures is spatial power. Treated groups are compared to the control group at the final time point. The MIXED procedure is also used separately for each treatment group to calculate adjusted means and standard errors at each time point. Both analyses account for the autocorrelation within each subject."}, "MKN45 gastric xenografts": {"test_system": "MKN45 gastric xenografts", "assay": "Xenograft tumor model MKN45", "format": "in vivo, mice", "protocol": "as §1, §2"}, "cMet enzyme": {"molecular_target": "cMet enzyme (Homo sapiens, UniProt P08581)", "sequence (P08581 25-1390)": "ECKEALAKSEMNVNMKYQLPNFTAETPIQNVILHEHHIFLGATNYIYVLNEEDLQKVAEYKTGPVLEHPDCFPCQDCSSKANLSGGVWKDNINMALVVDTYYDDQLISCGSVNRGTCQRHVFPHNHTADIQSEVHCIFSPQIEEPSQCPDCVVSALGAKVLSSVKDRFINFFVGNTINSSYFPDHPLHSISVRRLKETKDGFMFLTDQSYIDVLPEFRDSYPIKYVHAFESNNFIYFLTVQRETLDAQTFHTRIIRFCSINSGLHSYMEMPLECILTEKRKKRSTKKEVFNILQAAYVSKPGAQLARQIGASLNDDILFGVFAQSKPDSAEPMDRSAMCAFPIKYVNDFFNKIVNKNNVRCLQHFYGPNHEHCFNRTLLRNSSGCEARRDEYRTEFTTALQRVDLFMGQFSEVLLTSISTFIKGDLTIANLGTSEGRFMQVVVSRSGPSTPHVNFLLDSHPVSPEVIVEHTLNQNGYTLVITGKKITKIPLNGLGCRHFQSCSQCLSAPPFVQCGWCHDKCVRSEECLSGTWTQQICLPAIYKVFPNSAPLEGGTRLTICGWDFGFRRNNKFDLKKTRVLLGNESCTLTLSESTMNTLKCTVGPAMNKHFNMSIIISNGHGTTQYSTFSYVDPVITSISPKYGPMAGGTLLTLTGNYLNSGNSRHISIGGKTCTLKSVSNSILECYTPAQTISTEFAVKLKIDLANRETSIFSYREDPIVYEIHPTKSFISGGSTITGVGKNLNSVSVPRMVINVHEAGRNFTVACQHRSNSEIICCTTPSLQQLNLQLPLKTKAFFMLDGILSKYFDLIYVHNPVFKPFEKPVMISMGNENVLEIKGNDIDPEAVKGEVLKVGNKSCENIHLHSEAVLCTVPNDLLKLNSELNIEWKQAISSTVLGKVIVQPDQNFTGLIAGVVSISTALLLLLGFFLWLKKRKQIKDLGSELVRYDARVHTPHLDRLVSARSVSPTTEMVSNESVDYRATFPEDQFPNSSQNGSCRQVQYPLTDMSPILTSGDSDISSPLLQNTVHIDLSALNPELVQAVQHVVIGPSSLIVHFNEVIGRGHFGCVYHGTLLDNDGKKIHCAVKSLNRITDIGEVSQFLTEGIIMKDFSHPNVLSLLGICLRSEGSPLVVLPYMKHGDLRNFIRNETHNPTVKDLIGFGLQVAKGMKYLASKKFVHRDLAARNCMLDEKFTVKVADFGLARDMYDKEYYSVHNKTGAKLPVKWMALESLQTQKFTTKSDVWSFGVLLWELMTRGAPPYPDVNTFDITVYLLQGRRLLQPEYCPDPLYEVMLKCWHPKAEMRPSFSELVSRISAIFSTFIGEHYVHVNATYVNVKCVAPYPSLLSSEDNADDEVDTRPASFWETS", "assay": "cMet Homogeneous Time Resolved Fluorescence (HTRF) in vitro assay", "format": "biochemical", "details": "relative IC50; read-out: c-Met IC50 (HTRF)", "text": "This assay is based on HTRF technology and it is used to detect the phosphorylation of biotin labeled tyrosine peptide by cMet enzyme. After the reaction is completed, XL665 labeled streptavidin is used to recognize the biotin unit and a Europium (Eu3+) labeled anti-phospho-tyrosine antibody is used to recognize the phosphorylated tyrosine. The detection process relies on the transfer of energy between the excited Eu3+ and the XL665 labeled streptavidin. The aim of this protocol is to calculate the ability of test compounds to inhibit the phosphorylation of the product of this reaction and calculate their relative IC50 values.\nA reference compound, if desired, may be prepared as a 1 mM stock solution in 100% DMSO and test compounds are prepared as 10 mM stock solutions in 100% DMSO. 1 mM reference compound and 10 mM test compounds are pre-diluted to 8 μM and 80 μM 10% DMSO solutions in a 96-well dilution plate. Compounds are serially diluted (1:3) using Tecan Freedom EVO 200 and 10-point dilution curves are generated for each of the compounds tested. 10 μL of serially diluted compounds are transferred to a 96-well assay plate using Temo (Tecan). […] The assay plate is incubated at RT for 60 min before reading the fluorescence signals at 620 nm emission and 665 nm […] in a Victor3 instrument (PerkinElmer Corporation). […]"}, "[2]": {"assay": "Kinetic solubility screen (nephelometry)", "format": "physicochemical", "protocol": "The assay is used to determine the concentration range in which a compound that has been pre-solubilized in DMSO at 10 mM will precipitate from a solution. The assay is conducted in a screening format on a 96-well plate and measures the nephelometry (light scattering) from precipitated compound in aqueous phosphate buffer (50 mM; pH 7.4). This method consists of a 2-hour RT (room temperature) incubation of compound in buffer at concentrations of 10, 20, 40, 60, 80, and 100 μM (where % DMSO is kept constant). Plates are pre-read by the nephelometer to determine if scratches or dust particles are present and this is used for background subtraction. The reported values are the concentrations at which the last soluble and first insoluble are achieved. These assays are not optimized to assess equilibrium solubility or determine a “true” kinetic solubility."}, "99 kinases": {"molecular_target": "99 kinases", "assay": "Cerep Express Diversity Kinase Profile screening", "format": "biochemical", "text": "The Express Diversity Kinase Profile™ is a screening service developed by Cerep SA (Paris, France). Details of assay conditions and/or contact information can be found on their website http://www.cerep.fecerep/users/pages/catalog/profiles/catalog.asp)."}, "[3]": {"details": "4 mg/kg oral twice a day for 28 days"}, "[4]": {"details": "8 mg/kg oral twice a day for 28 days"}, "[5]": {"details": "16 mg/kg oral twice a day for 28 days"}, "[6]": {"details": "32 mg/kg oral twice a day for 28 days"}}, "data": [{"smiles": "Cn1cc(-c2ccc3nnc(Sc4ccc5nn(C)cc5c4)n3n2)cn1", "note": "[Example 1, 6-(1-Methyl-1H-pyrazol-4-yl)-3-(2-methyl-2H-indazol-5-ylthio)-[1,2,4]triazolo[4,3-b]pyridazine]", "values": [{"measurement": "Mean Tumor Volume ± Standard Error", "setting": "[1]; 2 mg/kg oral twice a day for 28 days", "value": "271 ± 61", "unit": "mm^3"}, {"measurement": "Mean Tumor Volume ± Standard Error", "setting": "[1]; [3]", "value": "137 ± 29", "unit": "mm^3"}, {"measurement": "Mean Tumor Volume ± Standard Error", "setting": "[1]; [4]", "value": "108 ± 16", "unit": "mm^3"}, {"measurement": "Mean Tumor Volume ± Standard Error", "setting": "[1]; [5]", "value": "116 ± 19", "unit": "mm^3"}, {"measurement": "Mean Tumor Volume ± Standard Error", "setting": "[1]; [6]", "value": "46 ± 4", "unit": "mm^3"}, {"measurement": "Mean Tumor Volume ± Standard Error", "setting": "MKN45 gastric xenografts; [3]", "value": "329 ± 54", "unit": "mm^3"}, {"measurement": "Mean Tumor Volume ± Standard Error", "setting": "MKN45 gastric xenografts; [4]", "value": "296 ± 29", "unit": "mm^3"}, {"measurement": "Mean Tumor Volume ± Standard Error", "setting": "MKN45 gastric xenografts; [5]", "value": "166 ± 10", "unit": "mm^3"}, {"measurement": "Mean Tumor Volume ± Standard Error", "setting": "MKN45 gastric xenografts; [6]", "value": "161 ± 14", "unit": "mm^3"}, {"measurement": "IC50", "setting": "cMet enzyme", "value": 10, "unit": "nM"}, {"measurement": "1st insoluble pH 7.4", "setting": "[2]; 50 mM phosphate buffer pH 7.4, 2 h RT, from 10 mM DMSO", "value": "Non detect"}, {"measurement": "solubility at 2 h", "setting": "[2]; aqueous phosphate buffer, aqueous buffer, kinetic from dmso stock, 50 mM phosphate buffer pH 7.4, 2 h RT, from 10 mM DMSO, read-out: Last soluble pH 7.4", "value": "> 100", "unit": "µM"}, {"measurement": "fold more soluble than the reference compound in pH 7.4 buffer", "setting": "[2]; kinetic solubility screen pH 7.4", "value": "at least 3 fold"}, {"measurement": "Kinases inhibited in Cerep screening of 99 kinases", "setting": "99 kinases", "value": "inhibited only c-Met"}]}]}
